These results are taken from PubChem BioAssay (NCI).

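Five compound concentrations were applied to cells in 96-well plates for 48 hours; endpoints were derived by simple linear interpolation of the resulting dose-response curve. GI50: concentration for 50% inhibition of growth. TGI: concentration producing complete growth inhibition.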 Where only a bound is given, the exact number is not on record here.

Some test systems named below: NCI-H23 lung; SR leukemia; IGROV1 ovarian; UACC-257 melanoma; OVCAR-8 ovarian; RXF 393 renal; OVCAR-4 ovarian; SK-MEL-5 melanoma.
Common to all, as to test: NCI tumour cell line growth inhibition, 48 h

As for `COc1cc2ncn(-c3cc(O[C@@H](C)c4ccccc4Cl)c(C(N)=O)s3)c2cc1OC`, the GI50 in the assay with NCI-H23 lung was 1.57 µM; in the assay on SR leukemia it was 0.701 µM; with IGROV1 ovarian, 3.69 µM; with UACC-257 melanoma it was 3.1 µM; in the assay with OVCAR-8 ovarian it was 1.45 µM; with RXF 393 renal it was 0.346 µM. The values for the GI50 in the assay on OVCAR-4 ovarian and in the assay on SK-MEL-5 melanoma were 3.53 µM and 0.247 µM, respectively. In addition, the TGI was more than 25 µM in the assay on NCI-H23 lung; more than 18.8 µM in the assay on SR leukemia; more than 25 µM in the assay on IGROV1 ovarian; more than 21.9 µM in the assay with UACC-257 melanoma; more than 25 µM in the assay on OVCAR-8 ovarian; more than 22.9 µM with RXF 393 renal. The TGI with OVCAR-4 ovarian is more than 25 µM; with SK-MEL-5 melanoma, 5.26 µM.

Take `CCCN(CCC)c1ccc(/C=C/c2ccc3cc(OCC)ccc3n2)cc1`: the GI50 was 36.7 µM in the assay with NCI-H23 lung; 13.8 µM in the assay on SR leukemia; more than 100 µM with IGROV1 ovarian; more than 100 µM with UACC-257 melanoma; 99.2 µM in the assay with OVCAR-8 ovarian; 5.23 µM in the assay on RXF 393 renal. The values for the GI50 with OVCAR-4 ovarian and in the assay on SK-MEL-5 melanoma were 72.7 µM and 23.6 µM, respectively. Also, the TGI is more than 100 µM in the assay with NCI-H23 lung; more than 100 µM with SR leukemia; more than 100 µM in the assay with IGROV1 ovarian; more than 100 µM with UACC-257 melanoma; more than 100 µM in the assay on OVCAR-8 ovarian; 64.1 µM in the assay with RXF 393 renal. The TGI in the assay with OVCAR-4 ovarian and in the assay on SK-MEL-5 melanoma was more than 100 µM in each case.

`COc1ccc(-c2cc(-c3cccn3C)c(C#N)c(=O)[nH]2)cc1OC`: the GI50 with NCI-H23 lung is more than 100 µM; in the assay on SR leukemia it was 0.483 µM; with IGROV1 ovarian, 91.7 µM; in the assay with UACC-257 melanoma, more than 100 µM; in the assay with OVCAR-8 ovarian, more than 100 µM; in the assay on RXF 393 renal, more than 100 µM. Moreover, the GI50 with OVCAR-4 ovarian and with SK-MEL-5 melanoma was more than 100 µM in each case. Further, the TGI in the assay on NCI-H23 lung, in the assay on SR leukemia, with IGROV1 ovarian, in the assay with UACC-257 melanoma, with OVCAR-8 ovarian and with RXF 393 renal was more than 100 µM throughout. The TGI in the assay on OVCAR-4 ovarian and in the assay on SK-MEL-5 melanoma was more than 100 µM each time.

Consider `COc1cccc(/C=C/[N+](=O)[O-])c1`, for which the GI50 in the assay on NCI-H23 lung was 3.21 µM; in the assay with SR leukemia it was 1.64 µM; with IGROV1 ovarian it was 2.4 µM; in the assay with UACC-257 melanoma, 3.19 µM; in the assay with OVCAR-8 ovarian, 10.7 µM; in the assay with RXF 393 renal it was 1.83 µM. Moreover, the GI50 in the assay with OVCAR-4 ovarian was 15.5 µM; in the assay on SK-MEL-5 melanoma, 10.5 µM. Also, the TGI in the assay on NCI-H23 lung amounted to 12.6 µM; in the assay on SR leukemia it was 5.18 µM; with IGROV1 ovarian, 6.51 µM; with UACC-257 melanoma it was 11.6 µM; in the assay on OVCAR-8 ovarian, 25.1 µM; in the assay with RXF 393 renal, 3.39 µM. For the same molecule, the TGI in the assay on OVCAR-4 ovarian was determined as 36.9 µM; with SK-MEL-5 melanoma, 22.5 µM.

For the molecule `O=c1cc(N2CCN(CCCCCOc3cc(O)c4c(=O)cc(-c5ccccc5)oc4c3)CC2)c2ccccc2o1`, the GI50 in the assay on NCI-H23 lung was 0.218 µM; in the assay on SR leukemia, 42.9 µM; in the assay with IGROV1 ovarian, 47.4 µM; in the assay with UACC-257 melanoma it was more than 100 µM; with OVCAR-8 ovarian, more than 100 µM; in the assay with RXF 393 renal it was more than 100 µM. Besides, the GI50 in the assay with OVCAR-4 ovarian was 62.7 µM; in the assay with SK-MEL-5 melanoma, 28 µM. The TGI is 0.475 µM with NCI-H23 lung; more than 100 µM in the assay with SR leukemia; more than 100 µM in the assay with IGROV1 ovarian; more than 100 µM in the assay with UACC-257 melanoma; more than 100 µM in the assay with OVCAR-8 ovarian; more than 100 µM in the assay on RXF 393 renal. The TGI with OVCAR-4 ovarian and in the assay with SK-MEL-5 melanoma was more than 100 µM in each case.

For the molecule `CC(C)C[C@H](NC(=O)Cn1ccc(NCc2ccccc2)cc1=O)B(O)O`, the GI50 in the assay with NCI-H23 lung is 5.01 µM; in the assay on SR leukemia, 0.281 µM; with IGROV1 ovarian, 8.05 µM; in the assay with UACC-257 melanoma, 0.961 µM; in the assay on OVCAR-8 ovarian it was 4.69 µM; in the assay on RXF 393 renal, 0.346 µM. The GI50 in the assay on OVCAR-4 ovarian was 4.59 µM; with SK-MEL-5 melanoma, 0.678 µM. The TGI with NCI-H23 lung was more than 100 µM; with SR leukemia it was 14.5 µM; in the assay on IGROV1 ovarian, 54.7 µM; in the assay on UACC-257 melanoma, 4.73 µM; in the assay with OVCAR-8 ovarian, more than 100 µM; in the assay on RXF 393 renal, 1.31 µM. The TGI in the assay with OVCAR-4 ovarian is more than 100 µM; in the assay on SK-MEL-5 melanoma, 2.89 µM.

Regarding `CNC/C(Cl)=N/S(=O)(=O)c1ccc(C)cc1`, the TGI in the assay on NCI-H23 lung is 26.2 µM; in the assay with SR leukemia it was 34.9 µM; in the assay with IGROV1 ovarian, 91.2 µM; with UACC-257 melanoma, 25.4 µM; in the assay on OVCAR-8 ovarian it was more than 100 µM; with RXF 393 renal, 9.34 µM. For the same molecule, the TGI worked out at 25.4 µM with OVCAR-4 ovarian and 36.7 µM in the assay on SK-MEL-5 melanoma.

`Nc1c2c(c(O)c3c1=C(CO)C=N3)=NCCS2`: the GI50 is 0.0971 µM in the assay on NCI-H23 lung; 0.235 µM in the assay on SR leukemia; 0.209 µM in the assay on IGROV1 ovarian; 0.142 µM in the assay on UACC-257 melanoma; 0.307 µM in the assay on OVCAR-8 ovarian; 0.289 µM in the assay on RXF 393 renal. For the same molecule, the values for the GI50 with OVCAR-4 ovarian and in the assay on SK-MEL-5 melanoma were 0.136 µM and 0.0215 µM, respectively. The TGI was 0.352 µM in the assay on NCI-H23 lung; 0.774 µM in the assay with SR leukemia; 0.535 µM in the assay with IGROV1 ovarian; 0.288 µM in the assay on UACC-257 melanoma; 0.88 µM in the assay on OVCAR-8 ovarian; 1.24 µM with RXF 393 renal. Besides, the TGI stood at 0.264 µM with OVCAR-4 ovarian and 0.0543 µM in the assay with SK-MEL-5 melanoma.

With `C=C1C(=O)O[C@H]2[C@H]1CC/C(COC(=O)C(=O)c1cn(C)c3ccc(Cl)cc13)=C\CC[C@@]1(C)O[C@@H]21`, the GI50 in the assay on NCI-H23 lung was 1.39 µM; in the assay on SR leukemia it was 0.3 µM; in the assay on IGROV1 ovarian it was 1.17 µM; with UACC-257 melanoma it was 1.65 µM; in the assay on OVCAR-8 ovarian, 2.1 µM; in the assay on RXF 393 renal, 1.06 µM. The GI50 is 2.26 µM in the assay on OVCAR-4 ovarian and 1.55 µM in the assay on SK-MEL-5 melanoma. In addition, the TGI turned out to be 3.05 µM in the assay on NCI-H23 lung; 50 µM in the assay on SR leukemia; 2.78 µM in the assay on IGROV1 ovarian; 3.55 µM in the assay with UACC-257 melanoma; 10.1 µM in the assay on OVCAR-8 ovarian; 2.33 µM in the assay on RXF 393 renal. The TGI in the assay on OVCAR-4 ovarian stood at 12.4 µM; in the assay with SK-MEL-5 melanoma, 2.91 µM.
